Test results reported in patent publication US10363239B2, “Method for inhibiting growth of cancer cells” (Pain Therapeutics, Inc., priority 2013, dated 2019).
Where two headings read alike, the source gives them in different places.

Columns and labels:
[1] = molecular target: FLNA pentapeptide of SEQ ID NO: 1 (Bn-VAKGL) (Homo sapiens, UniProt P21333); test: FITC-NLX-based FLNA screening assay (inhibition of FITC-naloxone binding to Bn-VAKGL on streptavidin plates); conditions: 10 nM FITC-NLX
mu opiate receptor (MOR) = test: MOR agonist activity using [35S]GTPγS binding assay in striatal membranes; assay type: biochemical; conditions: for MOR agonist activity ([35S]GTPγS binding), FLNA-Binding Compound as Agonist 1 μM + BFNA: 1 μM compound + 1 μM β-funaltrexamine
Method in brief: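 Striatal membranes (200 μg) were preincubated 5 min at 30 °C in HEPES pH 7.5 with 100 mM NaCl, 1 mM MgCl2 and 0.5 nM [35S]GTPγS, then 5 min more with 0.1–10 μM compound. Gαo was immunoprecipitated and bound radioactivity counted by scintillation.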

sigma σ1 receptor = sigma σ1 receptor (Homo sapiens, UniProt Q99720); test: Standard receptor binding assay; conditions: 10 μM concentration
Chain of sigma σ1 receptor (Q99720 whole entry): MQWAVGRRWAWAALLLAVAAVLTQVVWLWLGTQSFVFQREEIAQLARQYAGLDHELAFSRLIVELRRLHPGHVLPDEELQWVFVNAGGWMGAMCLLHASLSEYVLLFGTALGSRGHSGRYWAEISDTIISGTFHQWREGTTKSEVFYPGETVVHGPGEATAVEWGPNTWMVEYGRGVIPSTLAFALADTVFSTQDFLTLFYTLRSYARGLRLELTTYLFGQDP

more than 65 receptors = test: Standard binding assay on more than 65 receptors; conditions: 10 μM concentration
primary lung fibroblasts = test: [3H]glucose uptake; assay type: cell-based, human; conditions: C0105 0.1-5 nM, other compounds 1 or 5 nM; 4 days
Experimental: (§1) FIG. 1A through FIG. 1M illustrate the effects of various FLNA-binding compounds on glucose uptake in glioblastoma, melanoma, breast and pancreatic cancer cell lines, along with appropriate non-cancerous primary cell controls. Cells were grown in the absence or presence of 0.1-5 nM indicated compounds for 4 days. Following brief washes with PBS, cells were serum-deprived for 4 hours and then incubated in oxygenated Kreb's Ringer containing 0.1 μCi [^3H]glucose for 2 hours under constant oxygenation. The reaction was terminated by removal of the incubation medium, and cells were washed and scraped off to determine the amounts of [^3H]glucose in cells by scintillation spectrometry. […] N=5-6. […] . […] . To determine the effect of Compound C0105 on glucose utilization, the cancer and primary normal cells were plated extremely thinly (10%). Once cells attached, Compound C0105 was added at 0.1, 0.5, 1 or 5 nM in the medium twice daily (6 hours apart) for 4 days. The cells were serum-deprived (glucose deprived) for 2 hours. Cells were then rinsed with 1 ml PBS and glucose uptake was assessed by contacting the cells with [^3H]glucose (0.01 uCi/l ml) in Kreb's Ringer for 2 hours. Cells were then rinsed with 1 ml PBS 3 times, scraped off and their glucose content counted by liquid scintillation spectrophotometry.
(§2) Both glioblastoma and melanoma cells were plated extremely thinly. Once cells attached, Compound C0105 was added at 0.1, 0.5, 1 and 5 nM, whereas the other compounds were present at 1 and 5 nM in the medium twice daily (6 hours apart) for 4 days. The cells were serum-deprived (glucose deprived) for 2 hours. Cells were then rinsed with 1 ml PBS and glucose uptake was assessed by contacting the cells with [3H]glucose (0.01 uCi/l ml) of Kreb's Ringer for 2 hours. Cells were then rinsed with 1 ml PBS 3 times, scraped off and their glucose contents counted by liquid scintillation spectrophotometry.

[2] = tested on: glioblastoma cells (U-87 MG); test: [3H]glucose uptake; assay type: cell-based, human; conditions: C0105 0.1-5 nM, other compounds 1 and 5 nM, twice daily for 4 days
Experimental: as §1, §2

melanoma cells (A2058) = test: [3H]glucose uptake; assay type: cell-based, human; conditions: C0105 0.1-5 nM, other compounds 1 and 5 nM, twice daily for 4 days
Experimental: as §1, §2

[3] = tested on: non-small cell lung cancer cell lines; test: Glucose utilization; assay type: cell-based, human; conditions: data not shown
Experimental: To determine the effect of Compound C0105 on glucose utilization, the cancer and primary normal cells were plated extremely thinly (10%). Once cells attached, Compound C0105 was added at 0.1, 0.5, 1 or 5 nM in the medium twice daily (6 hours apart) for 4 days. The cells were serum-deprived (glucose deprived) for 2 hours. Cells were then rinsed with 1 ml PBS and glucose uptake was assessed by contacting the cells with [^3H]glucose (0.01 uCi/l ml) in Kreb's Ringer for 2 hours. Cells were then rinsed with 1 ml PBS 3 times, scraped off and their glucose content counted by liquid scintillation spectrophotometry.
. Primary lung fibroblast cells were used as control, non-cancerous cells to illustrate the difference in effects observed (FIG. 1C, FIGS. 1H-1I).

[4] = tested on: BxPC3 pancreatic cancer cell implants; test: Xenograft tumor size study; conditions: gemcitabine at 50 mg/kg i.p. b.i.d.
[5] = molecular target: biotinylated pentapeptide (Bn-VAKGL) of SEQ ID NO: 1 (Homo sapiens, UniProt P21333); test: Inhibition of [3H]NLX binding to biotinylated pentapeptide (Bn-VAKGL); conditions: read-out: IC50, inhibition of [3H]NLX binding to Bn-VAKGL; single affinity state
From the text: Data are derived from 6 studies, each using a different set of A7 cells.

adrenergic α1 receptors = test: Standard receptor binding assay; conditions: 10 μM concentration
[6] = FLNA-binding compound 0.01 μM, read-out: Percent Binding Inhibition
[7] = FLNA-binding compound 0.1 μM, read-out: Percent Binding Inhibition
[8] = FLNA-binding compound 1 μM, read-out: Percent Binding Inhibition
[9] = 0.1 μM compound relative to DAMGO
[10] = 1 μM compound + BFNA relative to DAMGO + BFNA
[11] = 1 μM compound relative to DAMGO
[12] = read-out: Percent Binding Inhibition, FLNA-binding compound 0.01 μM
[13] = read-out: Percent Binding Inhibition, FLNA-binding compound 0.1 μM
[14] = read-out: Percent Binding Inhibition, FLNA-binding compound 1 μM
[15] = Series C-2, 0.1 μM compound, relative to DAMGO
[16] = Series C-2, 0.1 μM compound, [35S]GTPγS binding to Gαo, striatal membranes
[17] = Series C-2, 1 μM compound + 1 μM β-FNA
[18] = Series C-2, 1 μM compound + β-FNA, relative to DAMGO + BFNA
[19] = Series C-2, 1 μM compound, relative to DAMGO
[20] = Series C-2, 1 μM compound, [35S]GTPγS binding to Gαo, striatal membranes

`CC1CN(CC(O)COc2cccc(F)c2)CC(C)O1` (stereo not drawn) [Compound A0049] gave an inhibition at 0.01 µM [1, 6] of 46.2%, an inhibition at 0.1 µM [1, 7] of 49.4% and an inhibition at 1 µM [1, 8] of 49.3%. The “MOR agonist activity ([35S]GTPγS binding), FLNA-Binding Compound as Agonist 0.1 μM” value (mu opiate receptor (MOR); 0.1 μM compound) was 232.3%, the “% DAMGO (0.1 μM)” value (mu opiate receptor (MOR); [9]) was 118.4% and the “MOR agonist activity ([35S]GTPγS binding), FLNA-Binding Compound as Agonist 1 μM” value (mu opiate receptor (MOR); 1 μM compound) was 370.3%. The “MOR agonist activity ([35S]GTPγS binding), FLNA-Binding Compound as Agonist 1 μM + BFNA” value (mu opiate receptor (MOR)) was 107.1%, the “% DAMGO + BFNA” value (mu opiate receptor (MOR); [10]) was 144.9% and the “% DAMGO (1 μM)” value (mu opiate receptor (MOR); [11]) was 134.2%. The “Activity at sigma σ1 receptor” value (sigma σ1 receptor) was “antagonist”.
For `O=C1CN(Cc2ccccc2)C2(CCN(S(=O)(=O)c3cc(Cl)c(O)c(Cl)c3)CC2)N1` [Compound C0139M], the “Binding to any of more than 65 assayed receptors” value (more than 65 receptors) was “no significant binding”, the “% DAMGO (0.1 μM)” value (mu opiate receptor (MOR); Series C-1, 0.1 μM compound, relative to DAMGO) was 106.2% and the “% DAMGO + BFNA” value (mu opiate receptor (MOR); Series C-1, 1 μM compound + β-FNA, relative to DAMGO + BFNA) was 129.8%. For the same molecule, the “% DAMGO (1 μM)” value (mu opiate receptor (MOR); Series C-1, 1 μM compound, relative to DAMGO) was 102.2%, the “Glucose uptake / glucose content” value (primary lung fibroblasts) was “no significant inhibition in glucose content” and the Glucose utilization [2] was “decreased the elevated glucose utilization”. For the same molecule, the Glucose utilization (melanoma cells (A2058)) was “decreased the elevated glucose utilization” and the Glucose utilization [3] was “decreased the elevated glucose utilization”.
`Nc1ccn([C@@H]2O[C@H](CO)[C@@H](O)C2(F)F)c(=O)n1` [gemcitabine] was tested, and the Tumor growth [4] was “slowed growth but did not shrink BxPC3 xenograft tumors”.
Molecule `O=C1CC[C@@]2(O)[C@H]3Cc4ccc(O)c5c4[C@@]2(CCN3CC2CC2)[C@H]1O5` [Naltrexone] has an IC50 [5] of 43 pM.
Molecule `CC(=O)c1ccc(S(=O)(=O)N2CC(CN(C)C)OC23CCN(C)CC3)cc1` (stereo not drawn) [Compound C0108M] has an inhibition at 0.01 µM [1, 12] of 54.6%, an inhibition at 0.1 µM [1, 13] of 61.4% and an inhibition at 1 µM [1, 14] of 68.7%. For the same molecule, the “% DAMGO (0.1 μM)” value (mu opiate receptor (MOR); [15]) was 108.7%, the “MOR agonist activity, percent [35S]GTPγS binding at the stated compound concentration” value (from here on “MOR agonist activity, percent”) (mu opiate receptor (MOR); [16]) was 205.6% and the “MOR agonist activity, percent” value (mu opiate receptor (MOR); [17]) was 76.9%. For the same molecule, the “% DAMGO + BFNA” value (mu opiate receptor (MOR); [18]) was 158.6%, the “% DAMGO (1 μM)” value (mu opiate receptor (MOR); [19]) was 104.1% and the “MOR agonist activity, percent” value (mu opiate receptor (MOR); [20]) was 258.5%. The “Glucose uptake / glucose content” value (primary lung fibroblasts) was “no significant inhibition in glucose content”, the Glucose utilization [2] was “decreased the elevated glucose utilization” and the Glucose utilization (melanoma cells (A2058)) was “decreased the elevated glucose utilization”. The Glucose utilization [3] was “decreased the elevated glucose utilization”.
`COc1ccc(S(=O)(=O)N2CCOC23CCNCC3)cc1` [Compound C0027] was tested, and the inhibition at 0.01 µM [1, 6] was 50.8%, the inhibition at 0.1 µM [1, 7] was 61.2% and the inhibition at 1 µM [1, 8] was 63.8%. The “% DAMGO (0.1 μM)” value (mu opiate receptor (MOR); [15]) was 121.3%, the “MOR agonist activity, percent” value (mu opiate receptor (MOR); [16]) was 233.2% and the “MOR agonist activity, percent” value (mu opiate receptor (MOR); [17]) was 72.2%. The “% DAMGO + BFNA” value (mu opiate receptor (MOR); [18]) was 164.5%, the “% DAMGO (1 μM)” value (mu opiate receptor (MOR); [19]) was 115.0% and the “MOR agonist activity, percent” value (mu opiate receptor (MOR); [20]) was 313.9%. The “Activity at sigma σ1 receptor” value (sigma σ1 receptor) was “antagonist” and the “Activity at adrenergic α1 receptors” value (adrenergic α1 receptors) was “antagonist”.
In the case of `COc1ccc(OCC(O)CN2CCc3ccccc3C2)cc1` (stereo not drawn) [Compound A0053], the inhibition at 0.01 µM [1, 12] is reported as 34.8%, the inhibition at 0.1 µM [1, 13] is reported as 40% and the inhibition at 1 µM [1, 14] is reported as 46.9%. The “MOR agonist activity ([35S]GTPγS binding), FLNA-Binding Compound as Agonist 0.1 μM” value (mu opiate receptor (MOR); 0.1 μM compound) was 78.5%, the “% DAMGO (0.1 μM)” value (mu opiate receptor (MOR); [9]) was 46.5% and the “MOR agonist activity ([35S]GTPγS binding), FLNA-Binding Compound as Agonist 1 μM” value (mu opiate receptor (MOR); 1 μM compound) was 118.2%. For the same molecule, the “MOR agonist activity ([35S]GTPγS binding), FLNA-Binding Compound as Agonist 1 μM + BFNA” value (mu opiate receptor (MOR)) was 15.1%, the “% DAMGO + BFNA” value (mu opiate receptor (MOR); [10]) was 46.2% and the “% DAMGO (1 μM)” value (mu opiate receptor (MOR); [11]) was 47.5%. The “Glucose uptake / glucose content” value (primary lung fibroblasts) was “no significant inhibition in glucose content”, the Glucose utilization [2] was “decreased the elevated glucose utilization” and the Glucose utilization (melanoma cells (A2058)) was “decreased the elevated glucose utilization”. The Glucose utilization [3] was “decreased the elevated glucose utilization”.
